The text below walks through data of patent US12459921B2, “Isoindoline compound, preparation method, pharmaceutical composition and use thereof” (SHANGHAI INSTITUTE OF MATERIA MEDICA, CHINESE ACADEMY OF …, priority 2018, dated 2025).

The test system of this assay is MM.1S cells. In words: Inhibitory effect on the proliferation of MM.1S, MTS cell viability test. The assay is classed as cell-based. The note with it: Homo sapiens, MM1.S, 168 h, multiple myeloma MM.1S cells, 7 days incubation, read-out: Tumor cell inhibitory activity. An outline of the steps:
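MM.1S cells (20,000/well, RPMI 1640 with 10% FBS) exposed to 5-fold compound dilutions at 0.2% DMSO for 7 days at 37° C, 5% CO2. MTS added for 3-4 h; OD490-OD690 gave inhibition versus DMSO, IC50 fitted, mean of three experiments.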
In general terms: Formazan colour is commonly taken as a measure of viable cells.

Each structure is given as a SMILES string. Bounds are passed on as bounds.

Take `Cc1ccc(NC(=O)[C@H](CCCc2cccc3c2CN(C2CCC(=O)NC2=O)C3=O)NC(=O)CCCCCN)cc1Cl` (stereo partly drawn) [Example 189, 6-amino-N-((2S)-1-((3-chloro-4-methylphenyl)amino)-5-(2-(2,6-dioxopiperidine-3-)-1-oxoisoindoline-4-)-1-oxopentyl-2-)hexanamide]: the IC50 was 0.1 to 1 µM.

With `CC(=O)N[C@@H](CCCc1cccc2c1CN(C1CCC(=O)NC1=O)C2=O)C(=O)NCc1ccc(OCCN(C)C)cc1` (stereo partly drawn) [Example 190], the IC50 lay within 1 to 20 µM.

`Cc1ccc(NC(=O)[C@H](CCCc2cccc3c2CN(C2CCC(=O)NC2=O)C3=O)NC(=O)C2CCNCC2)cc1Cl` (stereo partly drawn) [Example 191, N-((2S)-1-((3-chloro-4-methylphenyl)amino)-5-(2-(2,6-dioxopiperidine-3-) -1-oxoisoindoline-4-)-1-oxopentyl-2-)piperidine-4-carboxamide]: the IC50 lay in the range of 0.1 to 1 µM.

For the compound `CC(=O)N[C@@H](CCCc1cccc2c1CN(C1CCC(=O)NC1=O)C2=O)C(=O)NCc1ccc(Oc2ccccc2)cc1` (stereo partly drawn) [Example 192, (2S)-2-acetylamino-5-(2-(2,6-dioxopiperidine-3-)-1-oxoisoindoline-4-)-N-(4-phenoxybenzyl)pentanamide], the IC50 lay in the range of 0.1 to 1 µM.

Turning to `Cc1ccc(NC(=O)[C@H](CCCc2cccc3c2CN(C2CCC(=O)NC2=O)C3=O)NC(=O)CCCCCO)cc1Cl` (stereo partly drawn) [Example 193, N-((2S)-1-(3-chloro-4-methylaniline)-5-(2-(2,6-dioxopiperidine-3-)-1-oxoisoindoline-4-)-1-oxopentyl-2-)-6-hydroxyhexanamide], the IC50 was less than 0.1 µM.

Regarding `CC(=O)N[C@@H](CCCc1cccc2c1CN(C1CCC(=O)NC1=O)C2=O)C(=O)Nc1ccccc1-c1ccccn1` (stereo partly drawn) [Example 194, (2S)-2-acetylamino-5-(2-(2,6-dioxopiperidine-3-)-1-oxoisoindoline-4-)-N-(2-(pyridine-2-)phenyl)pentanamide], the IC50 fell in the range of 0.1 to 1 µM.

In the case of `CC(=O)N[C@@H](CCCc1cccc2c1CN(C1CCC(=O)NC1=O)C2=O)C(=O)Nc1ccccc1-c1cccnc1` (stereo partly drawn) [Example 196, (2S)-2-acetylamino-5-(2-(2,6-dioxopiperidine-3-)-1-oxoisoindoline-4-)-N-(2-(pyridine-3-)phenyl)pentanamide], the IC50 was 1 to 20 µM.

As for `CC(=O)N[C@@H](CCCc1cccc2c1CN(C1CCC(=O)NC1=O)C2=O)c1nc2cccc(Br)c2[nH]1` (stereo partly drawn) [Example 197, N-((1S)-1-(7-bromo-1H-benzo[d]imidazole-2-)-4-(2-(2,6-dioxopiperidine-3-)-1-oxoisoindoline-4-)butyl)acetamide], the IC50 fell in the range of 0.1 to 1 µM.

`CC(=O)N[C@@H](CCCc1cccc2c1CN(C1CCC(=O)NC1=O)C2=O)C(=O)NC12CC3CC(CC(C3)C1)C2` (stereo partly drawn) [Example 198, (2S)-2-acetylamino-N-((3R,5R,7R)-adamantane-1-)-5-(2-(2,6-dioxopiperidine-3-)-1-oxoisoindoline-4-)pentanamide]: the IC50 was less than 0.1 µM.

On to `N[C@@H](CCCc1cccc2c1CN(C1CCC(=O)NC1=O)C2=O)c1nc2ccccc2[nH]1` (stereo partly drawn) [Example 199, 3-(4-((S)-4-amino-4-(1H-benzo(d)imidazole-2-)butyl)-1-oxoisoindoline-2-)piperidine-2,6-dione], for which the IC50 is more than 20 µM.

With `CC(=O)N[C@@H](CCCc1cccc2c1CN(C1CCC(=O)NC1=O)C2=O)C(=O)NC1C2CC3CC(C2)CC1C3` (stereo partly drawn) [Example 200, (2S)-2-acetylamino-N-((1S,3S,5S,7 S)-adamantane-2-)-5-(2-(2,6-dioxopiperidine-3-)-1-oxoisoindoline-4-)pentanamide], the IC50 was 0.1 to 1 µM.

`N[C@@H](CCCc1cccc2c1CN(C1CCC(=O)NC1=O)C2=O)c1nc2ccncc2[nH]1` (stereo partly drawn) [Example 201, 3-(4-((S)-4-amino-4-(3H-imidazole[4,5-c]pyridine-2-)butyl)-1-oxoindoline-2-)piperidine-2,6-dione]: the IC50 is more than 20 µM.

In the case of `CC(=O)N[C@@H](CCCc1cccc2c1CN(C1CCC(=O)NC1=O)C2=O)C(=O)Nc1ccc(C)c(Cl)c1` (stereo partly drawn) [Example 202, (2S)-2-acetylamino-N-(3-chloro-4-methylphenyl)-5-(2-(2,6-dioxopiperidine-3-)-1-oxoisoindoline-4-)pentanamide], the IC50 is less than 0.1 µM.

For the compound `CC(=O)N[C@@H](CCCc1cccc2c1CN(C1CCC(=O)NC1=O)C2=O)c1nc2ccccc2[nH]1` (stereo partly drawn) [Example 203, N-((1S)-1-(1H-benzo[d]imidazole-2-)-4-(2-(2,6-dioxopiperidine-3-)-1-oxoisoindoline-4-)butyl)amide], the IC50 lay in the range of 0.1 to 1 µM.

Consider `CC(=O)N[C@@H](CCCc1cccc2c1CN(C1CCC(=O)NC1=O)C2=O)C(=O)N(C)Cc1ccccc1` (stereo partly drawn) [Example 204, (2S)-2-acetylamino-N-benzyl-5-(2-(2,6-oxopiperidine-3-)-1-oxoisoindoline-4-)-N-methylpentanamide], for which the IC50 was 1 to 20 µM.

For `CC(=O)N[C@@H](CCCc1cccc2c1CN(C1CCC(=O)NC1=O)C2=O)c1nc2ccncc2[nH]1` (stereo partly drawn) [Example 205, N-((1S)-4-(2-(2,6-dioxopiperidine-3-)-1-oxoisoindoline-4-)-1-(3H-imidazole[4,5-c]pyridine-2-)butyl)acetamide], the IC50 was more than 20 µM.

In the case of `CCC(=O)N[C@@H](CCCc1cccc2c1CN(C1CCC(=O)NC1=O)C2=O)C(=O)NCc1ccccc1` (stereo partly drawn) [Example 206, (2S)—N-benzyl-5-(2-(2,6-dioxopiperidine-3-)-1-oxoisoindoline-4-)-2-propionamidopentaneamide], the IC50 is less than 0.1 µM.

`CC(=O)N[C@@H](CCCc1cccc2c1CN(C1CCC(=O)NC1=O)C2=O)C(=O)N1CCC2(CC1)OCc1ccccc12` (stereo partly drawn) [Example 207, N-((2S)-5-(2-(2,6-dioxopiperidine-3-)-1-oxoisoindoline-4-)-1-oxo-1-(3H-spiro[isobenzofuran-1,4′-piperidine]-1′-)pentyl-2-)acetamide]: the IC50 lay within 0.1 to 1 µM.

Consider `[2H]c1c([2H])c([2H])c(N2CCN(CCCCc3cccc4c3CN(C3CCC(=O)NC3=O)C4=O)CC2)c([2H])c1[2H]` (stereo not drawn) [Example 208, 3-(1-oxo-4-(4-(4-(phenyl-d5)piperazine-1-)butyl)isoindoline-2-)piperidine-2,6-dione], for which the IC50 is 0.1 to 1 µM.

On to `[2H]c1c([2H])c([2H])c(N2CCN(CCCCCCc3cccc4c3CN(C3CCC(=O)NC3=O)C4=O)CC2)c([2H])c1[2H]` (stereo not drawn) [Example 209, 3-(1-oxo-4-(6-(4-(phenyl-d5)piperazine-1-)hexyl)isoindoline-2-)piperidine-2,6-dione], for which the IC50 was less than 0.1 µM.

In the case of `[2H]c1c([2H])c([2H])c(N2CCN(CCCCCc3cccc4c3CN(C3CCC(=O)NC3=O)C4=O)CC2)c([2H])c1[2H]` (stereo not drawn) [Example 210], the IC50 was 0.1 to 1 µM.

With `O=C1CCC(N2Cc3c(OCCCCOc4ccnc5ccccc45)cc(F)cc3C2=O)C(=O)N1` (stereo not drawn) [Example 211, 3-(6-fluoro-1-oxy-4-(4-(quinoline-4-oxy)butoxy)-1-oxoisoindoline-2-)piperidine-2,6-dione], the IC50 was less than 0.1 µM.

Regarding `Cc1cc(OCCCCOc2cc(F)cc3c2CN(C2CCC(=O)NC2=O)C3=O)c2ccccc2n1` (stereo not drawn) [Example 212, 3-(6-fluoro-4-(4-((2-methylquinoline-4-)oxy)butoxy)-1-oxoisoindoline-2-)piperidine-2,6-dione], the IC50 was less than 0.1 µM.

Regarding `Cc1cc(COCCCCOc2cccc3c2CN(C2CCC(=O)NC2=O)C3=O)c2ccccc2n1` (stereo not drawn) [Example 213, 3-(4-(4-((2-methylquinoline-4-)methoxy)butoxy)-1-oxoisoindoline-2-)piperidine-2,6-dione], the IC50 lay within 0.1 to 1 µM.
